The source of these data is patent US20260325667A1, “TISSUE FACTOR ANTIBODY-DRUG CONJUGATES AND USES THEREOF” (priority 2022, published 2026).

For one data set, the system named is HPAF-II. In words: In vitro cytotoxicity (CellTiter Glo, 5 days), HPAF-II. The format is cell-based. The settings on record: controls (FITC-ADC 8 DAR 6.36; FITC-ADC 4 DAR 3.39; free belotecan). The procedure: (§1) Various cancer cell lines were plated in 96-well plates (Costar 3610) at a density of 1.5×10^3 cells/well in 100 μL of growth media. The next day, cells were treated with […] of test compounds serially-diluted in media. After incubation at 37° C. with […] for 5 days, viability was measured using the Promega CellTiter Glo® reagent according to the manufacturer's recommendations. GI50 curves were calculated in GraphPad Prism normalized to the payload concentration.

The test system of data set [1] is A431. Description: HMGB1 release from treated tumor cells (Lumit). To be noted: TF+ tumor cell line, e.g. The format is cell-based. The procedure:
(§2) Tumor cell treatment: Tumor cells (such as A431 or SKOV-3) were trypsinized by washing with PBS, then 3 mL of TrypLE express was added to each T75 flask and incubated for 3-5 minutes at 37° C. DMEM containing 10% FBS (Gibco) was added to each flask to gently wash cells. Cells were then transferred to a conical tube and centrifuged at 1000RPM for 5 minutes and resuspended in fresh medium. Cells were counted and the cell concentration was adjusted to 10,000 cells per 80 μL. Cells were plated at 80 μL per well and incubated at 37° C., 5% CO2 for 5 hours to allow cells to adhere to the plate surface. 5× dilutions of treatment compounds were made in medium. 20 µL of treatment were added to each well and mixed gently and incubated at 37° C., 5% CO2. Belotecan, MMAE, and a benchmark ADC (also referred to herein as BM ADC, CAS 1418731-10-8 and INN 10148) were also tested in parallel and served as additional controls.
(§3) ICD molecule, such as ATP and HMGB1, readouts were performed as follows. For ATP release measurement, Promega RealTimeGlo extracellular ATP assay kit (Promega, Cat #GA5010) was used according to the manufacturer's instructions. […] ATP release was measured beginning 24 hours after treatment with readings every 10 minutes on a Spectramax i3× with temperature control at 37° C. […] HMGB1 release was measured at 48- and 72-hours post-treatment.

Data set [2] concerns A431. In words: ATP release from treated tumor cells (RealTimeGlo). The format is cell-based. The settings on record: TF+ tumor cell line, e.g. The method, then: as §2, §3
Data set [3] can be described thus: NHP payload (belotecan) concentration in plasma. The settings on record: cynomolgus, ADC dosed q3wX2. The format is in vivo, cynomolgus monkeys. The procedure:
To assess toxicity of the TF-ADCs, female cynomolgus (“cyno”) monkeys (n=2 per group) were treated via IV bolus with test articles at the doses indicated in the table below on days 1 and 22 (q3wX2). All monkeys that survived until day 43 of the study underwent euthanasia for necropsy and anatomic pathology evaluation. Clinical observations, ECG, eye exams, clinical and anatomic pathology, and TK analysis were performed.
Further, payload concentrations in plasma of cyno treated with various dosages of TF-ADC 6-4 and TF-ADC 6-8 were evaluated and the data is shown in FIGS. 14A and 14B. […] The plasma level of belotecan was low relative to ADCs and total antibody with a molar ratio (AUC0-21d) ranging from 169 to 519 for TF-ADC 6-4 and 130 to 156 for TF-ADC 6-8. TF-ADC 6-4 had approximately 2-fold higher belotecan compared to TF-ADC 6-8 for the same dose level. […] Belotecan's apparent half-life ranged between 3 to 6 days (Formation rate-limited).

In data set [4] the test system is A431. Description: In vitro cytotoxicity (CellTiter Glo, 5 days), A431. The settings on record: controls (FITC-ADC 8 DAR 6.36; FITC-ADC 4 DAR 3.39; free belotecan). It counts as cell-based. The procedure: as §1
Another data set deals with BxPC-3. In words: In vitro cytotoxicity (CellTiter Glo, 5 days), BxPC-3. It counts as cell-based. To be noted: controls (FITC-ADC 8 DAR 6.36; FITC-ADC 4 DAR 3.39; free belotecan), FITC-ADC 4 value marked *: likely not accurate due to curve shape. The procedure: as §1
Setting [5] is: read-out: IC50 - drug concentration.
Setting [6] is: read-out: IC50 - mAb concentration.

Read-outs that look alike come from different tables or passages of the source.

`CC[C@@]1(O)C(=O)OCc2c1cc1n(c2=O)Cc2c-1nc1ccccc1c2CCNC(C)C` [belotecan]: the IC50 was 3.04 nM in the data set on HPAF-II (Homo sapiens, 120 h, read-out: IC50 - drug concentration); 3.04 nM in the data set with HPAF-II (Homo sapiens, 120 h, read-out: IC50 - mAb concentration); 2.45 nM in the data set on HPAF-II (setting [5]); 2.45 nM with HPAF-II (setting [6]); 2.36 nM in the data set on A431 [4] (Homo sapiens, A-431, 120 h, FITC-ADC 4 value marked *: likely not accurate due to curve shape, read-out: IC50 - mAb concentration); 2.36 nM in the data set on A431 [4] (Homo sapiens, A-431, 120 h, read-out: IC50 - drug concentration). Besides, the IC50 turned out to be 2.62 nM in the data set with A431 [4] (FITC-ADC 4 value marked *: likely not accurate due to curve shape, read-out: IC50 - mAb concentration); 2.62 nM in the data set on A431 [4] (setting [5]); 2.62 nM in the data set on BxPC-3 (Homo sapiens, BXPC-3, 120 h, read-out: IC50 - drug concentration); 2.62 nM with BxPC-3 (Homo sapiens, BXPC-3, 120 h, read-out: IC50 - mAb concentration); 2.56 nM in the data set on BxPC-3 (setting [5]); 2.56 nM in the data set with BxPC-3 (setting [6]). For the same molecule, in the data set with A431 [1], the HMGB1 release entry is reported as “induced the release”. In addition, the ATP release result with A431 [2] is reported as “induced the release”. Further, the accumulation of payload result in data set [3] is “Minimal accumulation of payload was observed”.
